Assay results taken from patent US20050208463A1, “Method of screening drug” (priority 2001, published 2005).

Legend:
[1] = test system: Lrp-like protein; assay: Gel filtration analysis of changes in assemblies of the Lrp-like protein on mixing with potential ligands; assay type: biochemical, Pyrococcus sp. OT3; settings: for change in gel filtration profile of the Lrp-like protein (peak increased): protein monomer approximately 100 μM, at least 30 minutes at room temperature, UV 220 nm
Experimental: Possible changes in assemblies of the Lrp-like protein induced by interaction with amino acids and metabolic intermediates were analyzed in solution using gel filtration.
Gel filtration was carried out with the flow rate […], using a matrix (Protein Pak 125, 7.8×300 mm, Waters) and 50 mM Tris-HCl buffer (pH 7.0) containing 300 mM sodium chloride. Flow of the proteins was monitored by measuring the UV absorbance at 220 nm (LC Module I plus system, Waters). The Lrp-like protein purified by method 2, i.e., the rigorous method, were dissolved in 50 mM Tris-HCl buffer (pH 7.0) containing 200 mM sodium chloride, and kept at −80° C. until it was diluted by 10-fold with 50 mM Tris-HCl buffer (pH 7.0) containing 300 mM sodium chloride, and mixed with each potential ligand for at least 30 minutes at room temperature (about 25° C.). In the mixture, the monomer concentration of the Lrp-like protein was approximately 100 μM.

[2] = test system: Lrp-like protein; assay: Depolarization of crystals of the Lrp-like protein soaked in amino acid solutions; assay type: binding, Pyrococcus sp. OT3; settings: crystals soaked in 10 mM amino acid; several hours
Experimental: It has been known that the regularity inside a crystal might be affected, if the structure of the protein changes upon interaction with a ligand which is incorporated from outside the crystal, thereby depolarizing the crystal. Thus, crystals of the Lrp-like protein were soaked into solutions, each containing one of twenty amino acids at the same concentration 10 mM.

CC(C)C[C@H](N)C(=O)O [leucine]
effect on assembling of the Lrp-like protein concluded from gel filtration ([1]; amino acid 1 mM): accelerate disassembling of the protein | change in gel filtration profile of the Lrp-like protein (peak increased) ([1]; amino acid 1 mM): increasing the fourth peak | depolarization of crystals of the Lrp-like protein [2]: depolarized

O=C(O)C(O)COP(=O)(O)O (centres unmarked) [3-phosphoglyceric acid]
change in gel filtration profile of the Lrp-like protein (peak increased) ([1]; metabolic intermediate 10 mM): no significant effect was observed

CC(=O)C(=O)O [pyruvic acid]
change in gel filtration profile of the Lrp-like protein (peak increased) ([1]; metabolic intermediate 10 mM): no significant effect was observed

C[C@H](N)C(=O)O [alanine]
effect on assembling of the Lrp-like protein concluded from gel filtration ([1]; amino acid 1 mM): accelerate disassembling of the protein | change in gel filtration profile of the Lrp-like protein (peak increased) ([1]; amino acid 1 mM): increasing the fourth peak

N[C@@H](Cc1ccccc1)C(=O)O [phenylalanine]
effect on assembling of the Lrp-like protein concluded from gel filtration ([1]; amino acid 1 mM): accelerate disassembling of the protein | change in gel filtration profile of the Lrp-like protein (peak increased) ([1]; amino acid 1 mM): increasing the fourth peak

CC(C)[C@H](N)C(=O)O [valine]
effect on assembling of the Lrp-like protein concluded from gel filtration ([1]; amino acid 1 mM): intermediate effects | change in gel filtration profile of the Lrp-like protein (peak increased) ([1]; amino acid 1 mM): the third peak increased | depolarization of crystals of the Lrp-like protein [2]: depolarized

O=C(O)CC(=O)C(=O)O [oxaloacetic acid]
effect on assembling of the Lrp-like protein concluded from gel filtration ([1]; metabolic intermediate 10 mM): intermediate effects | change in gel filtration profile of the Lrp-like protein (peak increased) ([1]; metabolic intermediate 10 mM): the third peak increased

C[C@@H](O)[C@H](N)C(=O)O [threonine]
effect on assembling of the Lrp-like protein concluded from gel filtration ([1]; amino acid 1 mM): accelerate disassembling of the protein | change in gel filtration profile of the Lrp-like protein (peak increased) ([1]; amino acid 1 mM): increasing the fourth peak

CSCC[C@H](N)C(=O)O [methionine]
effect on assembling of the Lrp-like protein concluded from gel filtration ([1]; amino acid 1 mM): accelerate disassembling of the protein | change in gel filtration profile of the Lrp-like protein (peak increased) ([1]; amino acid 1 mM): increasing the fourth peak | depolarization of crystals of the Lrp-like protein [2]: depolarized

N=C(N)NCCC[C@H](N)C(=O)O [arginine]
effect on assembling of the Lrp-like protein concluded from gel filtration ([1]; amino acid 1 mM): accelerate disassembling of the protein | change in gel filtration profile of the Lrp-like protein (peak increased) ([1]; amino acid 1 mM): increasing the fourth peak

CC[C@H](C)[C@H](N)C(=O)O [isoleucine]
effect on assembling of the Lrp-like protein concluded from gel filtration ([1]; amino acid 1 mM): accelerates assembling of the protein | change in gel filtration profile of the Lrp-like protein (peak increased) ([1]; amino acid 1 mM): increasing the second peak | depolarization of crystals of the Lrp-like protein [2]: depolarized

O=C(O)CC(O)C(=O)O (centres unmarked) [malic acid]
effect on assembling of the Lrp-like protein concluded from gel filtration ([1]; metabolic intermediate 10 mM): intermediate effects | change in gel filtration profile of the Lrp-like protein (peak increased) ([1]; metabolic intermediate 10 mM): the third peak increased
